In US8877802B2 (priority 2005, dated 2014):

How the values were obtained:
[1] = test system: DAT-KO mice; conditions: 100 mg/kg IP once every 3 d for 40 wk; cited from earlier work
[2] = test system: DAT-KO mice; assay: Locomotor activity after αMT
[3] = test system: WT mice; assay: Striatal tissue DA by HPLC-EC after αMT; type: in vivo; conditions: αMT 250 mg/kg IP; 4 h
Method: (§1) Neurochemical assessments. Striatal tissue contents of DA and frontal cortical tissue levels of NE were assessed using HPLC-EC (high performance liquid chromatography with electrochemical detection) as described. In vivo microdialysis measurements of striatal extracellular DA levels in freely moving mice were performed at least 24 h after implantation of a microdialysis probe as described previously. Dialysate samples were assayed for DA using HPLC-EC.

[4] = test system: DAT-KO mice; assay: Striatal tissue DA by HPLC-EC after αMT; type: in vivo; conditions: αMT 250 mg/kg IP
Method: as §1

[5] = test system: WT mice; assay: In vivo microdialysis of striatal extracellular DA; conditions: αMT 250 mg/kg IP; freely moving WT mice
Method: as §1

[6] = test system: DAT-KO mice; assay: In vivo microdialysis of striatal extracellular DA; conditions: αMT 250 mg/kg IP; freely moving DAT-KO mice
Method: as §1

[7] = test system: WT mice; assay: Frontal cortex tissue NE by HPLC-EC after αMT; type: in vivo; conditions: αMT 250 mg/kg IP; 8 h after treatment
Method: as §1

[8] = test system: DAT-KO mice; assay: Frontal cortex tissue NE by HPLC-EC after αMT; type: in vivo; conditions: αMT 250 mg/kg IP; 8 h after treatment
Method: as §1

[9] = test system: DAT-KO mice; assay: Behavioral tests after αMT (akinesia, catalepsy, grasping, bracing, tremor, ptosis, righting reflex); conditions: αMT 250 mg/kg IP
[10] = test system: WT mice; assay: Locomotor activity after αMT; conditions: αMT 250 mg/kg IP

## CC(N)(Cc1ccc(O)cc1)C(=O)O (stereo not drawn) [αMT, α-methyl-p-tyrosine]
[1]
  consequences of chronic treatment: showed no negative consequences
[2]; after αMT 250 mg/kg IP
  time to restoration of locomotor activity: 16 to 24 h
[2]; αMT 250 mg/kg IP
  total distance traveled for 210 min after drug administration: 448±75 cm/210 min
[3]
  depletion of striatal tissue DA: 60%
[4]
  duration of the striatal DA depletion: up to 16 h
[4]; 15 min
  striatal DA remaining after depletion: 5 % of control levels in DAT-KO mice
[4]; DAT-KO mice, expressed against WT control
  striatal DA remaining after depletion: less than 0.2 % of WT control levels
[5]
  effect on extracellular DA levels in striatum: only a partial decrease
[6]
  effect on extracellular DA levels in striatum: essentially eliminated extracellular DA levels
[7]
  NE depletion in frontal cortex: about 60%
[8]
  NE depletion in frontal cortex: about 60%
[9]
  akinesia, catalepsy, grasping, bracing, tremor and ptosis tests: induced profound alterations
  righting reflex: did not affect the righting reflex
[10]
  total distance traveled for 210 min after drug administration: 505±98 cm/210 min
